According to patent US8685936B2, “Sphingosine kinase inhibitor prodrugs” (Apogee Biotechnology Corporation, priority 2009, dated 2014):
“Also recorded” adds a separate entry of the source.

Assays:
[1] = tested on: TNBS-induced Crohn's Disease model; assay: TNBS-induced Crohn's Disease model; type: in vivo
Method: FIG. 12. Effects of Compound 1 and Compound 2 on colon histology in the TNBS-induced Crohn's Disease model. On Day 0, female Sprague-Dawley rats were administered TNBS using a stainless steel catheter that was inserted into the colon (8 cm proximal to the anus; 1.0 mL of solution containing 30 mg TNBS and 20% ethanol in PBS). On Days 0-5 animals received daily oral gavage of Vehicle (described in FIG. 7) or 50 mg/kg of Compound 1 or Compound 2 in Vehicle. On Day 6, the colons were removed, weighed and scored for macroscopic damage. The distal 6 cm were transected for subsequent histology and biochemical analyses. In this model, the macroscopic score is an index of histologic damage to the colon which increases as the disease progresses.
FIG. 13. Effects of Compound 1 and Compound 2 on colon weight in the TNBS-induced Crohn's Disease model. Colon weights were measured for the rats described in FIG. 12. Values represent the mean±std. dev. for 5-6 rats per group. In this model, colon weight increases as the disease progresses due to progressive inflammation-mediated edema.
FIG. 14. Effects of Compound 2 on neutrophil infiltration into the colon in the TNBS-induced Crohn's Disease model. Neutrophil infiltration was evaluated in the rats described in FIG. 12. Values represent the mean±std. dev. for 5-6 rats per group. In this model, MPO activity in the colon increases as a result of neutrophil infiltration into the colon as the disease progresses.
The trinitrobenzene sulfonic acid (TNBS) model in rats provides a rapid, reliable and reproducible IBD model that mimics the manifestations of Crohn's Disease. Application of the hapten TNBS to the colon in the presence of ethanol results in transmural infiltrative disease that is limited to the colon and appears to be an IL-12-driven, Th1-mediated immunologic response. […] TNBS induces measurable injury within 2 to 3 days, peak acute inflammation within a week, and gradual progression into chronic inflammation lasting about 2 months.
To test the efficacy of the Compounds, groups of female Sprague-Dawley rats were administered TNBS on Day 0 and treated with vehicle (as the negative control group), Compound 1 or Compound 2 on Days 0-5 by oral gavage at a dose of 50 mg/kg/day. […] Disease progression was evaluated by macroscopic score, colon weight and colon MPO activity at sacrifice. The macroscopic score measures macroscopic damage within the distal 6 cm of the colon using a system that considers the extent of and number of ulcerations.

[2] = Conversion of Compound 2 to Compound 1 in living mice; plasma levels of Compound 1 by HPLC; type: in vivo
Method: FIG. 4. Conversion of Compound 2 into Compound 1 in vivo. Balb/C female mice, 6-8 weeks old, were dosed with either Compound 1 (●) or Compound 2 (♦) at 50 mg/kg by intravenous injection. Mice were euthanized at the indicate times after injection, and blood was harvested by cardiac puncture and plasma was prepared. The plasma was then extracted and analyzed for Compound 1 levels by HPLC.
To extend the in vitro studies described above, the ability of Compound 2 to be converted to Compound 1 in an in vivo test system was determined. In these experiments, Compound 1 or Compound 2 was dissolved in PEG400 and administered to female Balb/C mice at a dose of 50 mg/kg by intravenous injection. Mice were sacrificed and blood was removed via cardiac puncture at 2 minutes, 15 minutes, 30 minutes or 60 minutes. The concentration of Compound 1 in the blood of the animals at each of the time points was determined using HPLC with UV detection as described in the previous Example. […] In the case of administration of Compound 2, plasma concentrations of Compound 1 rose during the first 30 minutes and then were decreased with a half-time of clearance of approximately 20 minutes.

[3] = tested on: Murine JC mammary adenocarcinoma cells; assay: Cytotoxicity, MTS cell viability assay; type: cell-based; settings: 72 hours
Excerpt: FIG. 5. Inhibition of tumor cell proliferation by Compound 1 and Compound 2. Murine JC mammary adenocarcinoma cells were exposed to the indicated concentrations of either Compound 1 (▪) or Compound 2 (▴) for 72 hr. At the end of the exposure, the number of viable tumor cells was quantified using the MTS assay. Values represent the fraction of surviving cells compared with DMSO-(vehicle)-treated control cells.
To further assess the biological efficacies of the Compounds in intact cells, Compound 1 and Compound 2 were evaluated for cytotoxicity using a murine breast cancer cell line. These experiments followed methods that have been extensively used. The cells were treated with varying doses of the test Compound for 72 hours, and then cell viability was measured using CellTiter 96® AQueous Non-Radioactive Cell Proliferation Assay (MTS) available from Promega Corporation. Values represent the mean±std. dev. percentage of cells that survive at each of the indicated concentrations of Compound 1 or Compound 2. […] However, the extent of cell killing and the potency for cell killing were greater for Compound 2 than Compound 1.

DSS-colitis model = assay: Acute DSS-colitis model of inflammatory bowel disease; type: in vivo, C57BL/6 mice; settings: for colon length (contraction of the colon), ester prodrugs: 4-5 per group (Example 17, FIG. 10)
Method: FIG. 7. Effects of Compound 1 and Compound 2 on the Disease Activity Index (DAI) in the acute DSS-colitis model. […] After 6 days, the DAI was calculated for each group. Values represent the mean±std. dev. for 5-6 mice per group. […] FIG. 8. Effects of Compound 1 and Compound 2 on colon length in the acute DSS-colitis model. […] After 6 days, the animals were sacrificed and the length of the colon was measured. Values represent the mean±std. dev. for 6-7 mice per group. In this model, colon length decreases as the disease progresses. […] FIG. 9. Effects of Compound 1 and Compound 2 on neutrophil infiltration into the colon in the acute DSS-colitis model. […] After 6 days, the animals were sacrificed and the colons were harvested. Myeloperoxidase activity (MPO) was measured and normalized by the protein concentration of the samples. Values represent the mean±std. dev. for 6-7 mice per group. In this model, MPO activity in the colon increases as a result of neutrophil infiltration into the colon as the disease progresses. […] FIG. 10. Effects of ester prodrugs on colon length in the acute DSS-colitis model. C57BL/6 mice were treated for 6 days as follows: 2% DSS in the drinking water and daily oral administration of Vehicle (described in FIG. 7); or 2% DSS in the drinking water and oral administration of 50 mg/kg the indicated ester prodrugs in Vehicle. After 6 days, the animals were sacrificed and the length of the colon was measured. Values represent the mean±std. dev. for 4-5 mice per group. In this model, colon length decreases as the disease progresses. […] FIG. 11. Effects of ester prodrugs on neutrophil infiltration into the colon in the acute DSS-colitis model. C57BL/6 mice were treated for 6 days as follows: 2% DSS in the drinking water and daily oral administration of Vehicle (described in FIG. 7); or 2% DSS in the drinking water and oral administration of 50 mg/kg the indicated ester prodrugs in Vehicle. After 6 days, the animals were sacrificed and the length of the colon was measured. Values represent the mean±std. dev. for 4-5 mice per group. In this model, MPO activity in the colon increases as a result of neutrophil infiltration into the colon as the disease progresses. […] In these experiments, male C57BL/6 mice were provided with standard rodent diet and water ad libitum. After their acclimation, the animals were randomly divided into groups of 5 or 6 for DSS (40,000 MW from ICN Biomedicals, Inc., Aurora, Ohio)- and drug-treatment. The Compounds were dissolved in a Vehicle consisting of 46.7% PEG 400, 46.7% of a solution of 0.375% Tween 80 in saline and 6.6% ethanol, and given once daily (starting on Day 0) by oral gavage in a volume of 0.1 mL per dose. The mice were given normal drinking water or 2% DSS (starting on Day 0) and treated orally with Compound 1 or Compound 2 at a dose of 50 mg/kg daily. The body weight of each animal was measured each day, and the Disease Activity Index (DAI) was scored for each animal on Day 6. On Day 6, the animals were sacrificed by cervical dislocation and the entire colon was removed and measured to the nearest 0.1 cm. The distal 3 cm of the colons were used for biochemical analyses of inflammation markers.

[4] = TNBS Day 0, 50 mg/kg/day oral gavage Days 0-5, Day 6, female Sprague-Dawley rats
[5] = 2% DSS, 50 mg/kg oral, 6 days, C57BL/6 mice

**Q.** With `O=C(NCCc1ccc(O)c(O)c1)C12CC3CC(C1)CC(c1ccc(Cl)cc1)(C3)C2` [Compound 1, 3-(4-Chlorophenyl)-adamantane-1-carboxylic acid [2-(3,4-dihydroxyphenyl)-ethyl]amide] as the compound, how does the Compound-related toxicities ([1]; 50 mg/kg/day oral gavage Days 0-5, rats sacrificed on Day 6) read?
**A.** The Compound-related toxicities was “no Compound-related toxicities apparent”.

**Q.** What about the “Macroscopic Score of colon damage” value [1, 4] of the same compound?
**A.** Its value is “but not Compound 1, reduced the Macroscopic Score; also recorded: much less active”.

**Q.** And the colon weight [1, 4]?
**A.** The colon weight was “but not Compound 1 reduced the elevation of the colon weight; also recorded: much less active”.

**Q.** And the “time of maximum plasma concentration of Compound 1” value ([2]; 50 mg/kg intravenous, female Balb/C mice, sampling at 2, 15, 30, 60 minutes)?
**A.** Its value is “earliest time point”.

**Q.** And the “half-time for clearance of Compound 1 from plasma” value ([2]; 50 mg/kg of the named compound by intravenous injection in PEG400, female Balb/C mice, Compound 1 measured)?
**A.** The value was “approximately 5 minutes”.

**Q.** What about the “inhibition of tumor cell proliferation (cell viability)” value [3] of the same compound?
**A.** The value was “can inhibit tumor cell proliferation”.

**Q.** And the “Disease Activity Index (DAI)” value (DSS-colitis model; 2% DSS in drinking water, 50 mg/kg daily oral, Day 6, C57BL/6 mice)?
**A.** Its value is “reduced the intensity of the IBD manifestations”.

**Q.** And the “colon myeloperoxidase (MPO) activity (neutrophil infiltration)” value (DSS-colitis model; 2% DSS, 50 mg/kg daily oral, Day 6, C57BL/6 mice (Example 16, FIG. 9))?
**A.** The value was “markedly attenuated”.

**Q.** What about the colon length (DSS-colitis model; 2% DSS, 50 mg/kg oral, Day 6, C57BL/6 mice (Example 16, FIG. 8)) of the same compound?
**A.** Its colon length is “colons of significantly longer length”.

**Q.** Which results are given for `CCC(=O)Oc1ccc(CCNC(=O)C23CC4CC(C2)CC(c2ccc(Cl)cc2)(C4)C3)cc1OC(=O)CC` [Compound 3, Propionic acid 2-propionyloxy-5-(2-{[3-(4-chlorophenyl)-adamantane-1-carbonyl]-amino}ethyl)phenyl ester]?
**A.** melting point: 114 to 115 °C; colon length (contraction of the colon), ester prodrugs (DSS-colitis model; [5]): effective in preventing the contraction of the colons

**Q.** Which melting point does the source give for `CCCC(=O)Oc1ccc(CCNC(=O)C23CC4CC(C2)CC(c2ccc(Cl)cc2)(C4)C3)cc1OC(=O)CCC` [Compound 4, Butyric acid 2-butyryloxy-5-(2-{[3-(4-chlorophenyl)-adamantane-1-carbonyl]-amino}ethyl)phenyl ester] here?
**A.** Its melting point is 78 to 80 °C.

**Q.** What about the “colon length (contraction of the colon), ester prodrugs” value (DSS-colitis model; 2% DSS, 50 mg/kg oral, 6 days, C57BL/6 mice, 50 mg/kg) of the same compound?
**A.** Its value is “effective in preventing the contraction of the colons; also recorded: slightly less effective”.

**Q.** For `CC(C)C(N)C(=O)Oc1cc(CCNC(=O)C23CC4CC(C2)CC(c2ccc(Cl)cc2)(C4)C3)ccc1O` (stereo not drawn) [Compound 6, 2-Amino-3-methyl-butyric acid 5-(2-{[3-(4-chlorophenyl)adamantane-1-carbonyl]amino}ethyl)-2-hydroxyphenyl ester], which “colon length (contraction of the colon), ester prodrugs” value (DSS-colitis model; [5]) is on record?
**A.** The value was “effective in preventing the contraction of the colons”.

**Q.** What about the “colonic MPO activity, ester prodrugs” value (DSS-colitis model; 2% DSS, 50 mg/kg oral, 6 days, C57BL/6 mice, 4-5 per group (Example 17, FIG. 11)) of the same compound?
**A.** Its value is “all of the Compounds except Compound 6 substantially prevented the elevation of colonic MPO activity”.
